Source: patent publication US20170234881A1, “METHODS OF DIAGNOSING AND TREATING CANCER” (INSERM ( INSTITUT NATIONAL DE LA SANTÉ ET DE LA RECHERCHE …, priority 2014, published 2017)

What was measured:
shHSD2 MCF7 cells = assay: Proliferation of shHSD2 MCF7 cells (BrDU); type: cell-based, human; settings: sh11HSD2 MCF7 cells, 24 h; OCDO 5 μM; cortisone increasing concentrations
Method: FIG. 7. Knock-down of 11βHSD2 decreases cell proliferation, invasion and survival in MCF7 cells as well as tumor growth and OCDO reverses these effects. shC or shHSD2 MCF7 cells were analyzed as followed: (A) The proliferation of sh-C or shHSD2 cells treated or not with OCDO 5 μM 24 h was measured using quantification of DNA BrDU incorporation as described in FIG. 2A. (B) The proliferation of sh-C or shHSD2 cells treated or not with increasing concentration of cortisone for 24 h was measured as in (A). (C) The invasiveness of sh-C or shHSD2 cells treated or not with OCDO 5 μM for 72 h was assayed using matrigel-coated filters. (D) the formation of colony by sh-C or shHSD2 cells treated or not with OCDO 1 μM was quantified as described in FIG. 6F. […] Animals were monitored for tumor growth twice a week. […] (F) Mean (±s.e.m) of Ki67 positive cell number determined from IHC staining of shC or shHSD2 MCF7 tumor sections from (E), n=8, *P<0.05 (Student's t-test) using HistoQuant, Pannoramic Viewer (3DHistech).
MCF7 or HEK293T cells (5×10^6 cells) were transfected with 5 μg of the indicated plasmid using the NEON Transfection System and according to the manufacturer's recommendations. […] Several clones were analyzed by immunoblot analysis and real time RT-qPCR for the knock down of the expression of the protein of interest. […]

MCF7 cells = assay: Cell proliferation assay (BrDU incorporation), MCF7; type: cell-based, human; settings: MCF7 cells treated 24 h, concentration-dependent, level reached
Method: FIG. 2. OCDO is a tumor promoter in vitro and in vivo and its inhibition contributes to the anti-tumor effects of Tam and DDA. (A, B) Histograms representing the effect of OCDO or 17β-estrogen (E2) on MCF7 (A) and TS/A (B) cell proliferation after 24 h treatment using a colorimetric immunoassay measuring BrDU incorporation in DNA (C, D) Histogram representing the effect of OCDO on MCF7 (C) and TS/A (D) cell invasion. Data are the mean of three separate experiments (±[…]) Mice were implanted s.c. with MCF7 (E) or TS/A (F) cells and animals (8 per group) were treated s.c. every day starting on the day of implantation with either the solvent vehicle or OCDO (16 μg/kg for MCF7 or 50 μg/kg for TS/A). Animals were monitored for tumour growth twice a week. The data are representative of three independent experiments. The mean tumor volume±s.e.m is shown, *P<0.05, **P<0.01, ***P<0.001 (analysis of variance (ANOVA), Dunnett's post test). […] (I, J, K). Murine […], or human MDA-MB231 (J) or MDA-MB468 (K) cells implanted s.c. into mice (8 per group) and animals were treated s.c. with either the solvent vehicle or OCDO (16 μg/kg for MDA-MB-231 and MDA-MB-468 or 50 μg/kg for E0771). […] At the end of this time, cells were incubated with BrDU for an additional 8 h and then evaluated for proliferation using the ELISA kit, Roche Diagnostic, as indicated by the manufacturer.

Compound: CC(C)CCC[C@@H](C)[C@H]1CC[C@H]2[C@@H]3CC(=O)[C@@]4(O)C[C@@H](O)CC[C@]4(C)[C@H]3CC[C@]12C [OCDO, 6-oxo-cholestan-3β,5α-diol]
- effect on the inhibition of cell proliferation induced by 11βHSD2 knock-down (shHSD2 MCF7 cells): able to reverse the inhibition of cell proliferation
- growth rate (cell proliferation) relative to the control (MCF7 cells): 1.3 fold
